System: gene expression in the kidney
Assay: GeneChip microarray survey of E2 regulated gene expression, kidney
Details: for E2: Study 2 ERbKO; for Study 1 E2 Expr (/evansm/Kidney, mouse/Study 1, U74v2/KO E2 kidney (81038)) / E2 Expr (/evansm/Kidney, mouse/Study 2, U74v2/ER bKO kidney E2 (82412)): ERbKO
Description: FIG. 1 depicts a pattern analysis generated by a GeneChip microarray analysis. […] Two hours following the final dose, the mice were euthanized and 13 tissues removed for RNA preparation. Two independent studies were performed, with total RNA pooled from two groups of three animals for each condition. Gene expression was quantified by GeneChip microarrays using murine U74 sub A arrays. Data were analyzed for patterns indicating either ERα or ERβ dependent regulation as shown. […] The number of genes in each tissue that matched the theoretical induction (↑) or repression (↓) patterns for ERα or ERβ are indicated.
FIGS. 2A-2C show a series of bar graphs showing gene expression levels of known genes regulated in the kidney in an ERα pattern. […] Expression was measured in two independent sets of animals, with two groups of animals for each treatment in each study. A gene name abbreviation is shown above each graph, with the corresponding Unigene designation shown below.
One week later, the animals were ovariectomized.
GeneChip—Total RNA was prepared separately from each individual organ by using Trizol (Invitrogen) followed by subsequent repurification on Rneasy columns (Qiagen). In general, two pools of RNA were created using equal amounts of RNA from three mice. For small organs such as pituitary, an equal amount of RNA from six animals was combined.
Target Preparation and Array Hybridization—Total RNA was used to generate biotin labeled cRNA target as described (8) which was hybridized to the murine MG_U74Av2 probe arrays (Affymetrix, Santa Clara, Calif.) for 16 h at 45° C. Eleven biotin-labeled cRNAs at defined concentration were spiked into each hybridization and used to convert average difference values to frequencies expressed as parts per million.
The resulting data set was queried for genes whose regulation was dependent on ERα or ERβ.

[1] = 1st line of INDUCTIONS (by order 100060_l_at, kallikrein 8)
[2] = 2nd line of INDUCTIONS (by order 100061_f_at, kallikrein 8)
[3] = 3rd line of INDUCTIONS (by order 95775_f_at, kallikrein 1)
[4] = 4th line of INDUCTIONS (by order 104495_f_at, kallikrein 5)
[5] = 5th line of INDUCTIONS (by order 94716_f_at, kallikrein 9)
[6] = 6th line of INDUCTIONS (by order 100422_f_at, signal transducer and activator of transcription 5A)
[7] = 7th line of INDUCTIONS (by order 100423_f_at, signal transducer and activator of transcription 5A)
[8] = 8th line of INDUCTIONS (by order 101289_f_at, M17979)

## C[C@]12CC[C@@H]3c4ccc(O)cc4CC[C@H]3[C@@H]1CC[C@@H]2O [E2, 17β-estradiol]
[1]
  E2: 37
  Study 1 E2 Expr (/evansm/Kidney, mouse/Study 1, U74v2/KO E2 kidney (81038)): 37
  E2 Expr (/evansm/Kidney, mouse/Study 2, U74v2/ER bKO kidney E2 (82412)): 44
  E2 Expr (/evansm/Kidney, mouse/Study 2, U74v2/WT kidney E2 (82408)): 40
  E2 Expr (/evansm/Kidney, mouse/Study 2, U74v2/WT kidney E2 (82409)): 31
[2]
  E2: 297
  Study 1 E2 Expr (/evansm/Kidney, mouse/Study 1, U74v2/KO E2 kidney (81038)): 370
  E2 Expr (/evansm/Kidney, mouse/Study 2, U74v2/ER bKO kidney E2 (82412)): 359
  E2 Expr (/evansm/Kidney, mouse/Study 2, U74v2/WT kidney E2 (82408)): 338
  E2 Expr (/evansm/Kidney, mouse/Study 2, U74v2/WT kidney E2 (82409)): 201
[3]
  E2: 291
  Study 1 E2 Expr (/evansm/Kidney, mouse/Study 1, U74v2/KO E2 kidney (81038)): 333
  E2 Expr (/evansm/Kidney, mouse/Study 2, U74v2/ER bKO kidney E2 (82412)): 361
  E2 Expr (/evansm/Kidney, mouse/Study 2, U74v2/WT kidney E2 (82408)): 345
  E2 Expr (/evansm/Kidney, mouse/Study 2, U74v2/WT kidney E2 (82409)): 234
[4]
  E2: 130
  Study 1 E2 Expr (/evansm/Kidney, mouse/Study 1, U74v2/KO E2 kidney (81038)): 125
  E2 Expr (/evansm/Kidney, mouse/Study 2, U74v2/ER bKO kidney E2 (82412)): 163
  E2 Expr (/evansm/Kidney, mouse/Study 2, U74v2/WT kidney E2 (82408)): 145
  E2 Expr (/evansm/Kidney, mouse/Study 2, U74v2/WT kidney E2 (82409)): 89
[5]
  E2: 302
  Study 1 E2 Expr (/evansm/Kidney, mouse/Study 1, U74v2/KO E2 kidney (81038)): 372
  E2 Expr (/evansm/Kidney, mouse/Study 2, U74v2/ER bKO kidney E2 (82412)): 369
  E2 Expr (/evansm/Kidney, mouse/Study 2, U74v2/WT kidney E2 (82408)): 329
  E2 Expr (/evansm/Kidney, mouse/Study 2, U74v2/WT kidney E2 (82409)): 230
[6]
  E2: 92
  Study 1 E2 Expr (/evansm/Kidney, mouse/Study 1, U74v2/KO E2 kidney (81038)): 70
  E2 Expr (/evansm/Kidney, mouse/Study 2, U74v2/ER bKO kidney E2 (82412)): 104
  E2 Expr (/evansm/Kidney, mouse/Study 2, U74v2/WT kidney E2 (82408)): 104
  E2 Expr (/evansm/Kidney, mouse/Study 2, U74v2/WT kidney E2 (82409)): 73
[7]
  E2: 72
  Study 1 E2 Expr (/evansm/Kidney, mouse/Study 1, U74v2/KO E2 kidney (81038)): 61
  E2 Expr (/evansm/Kidney, mouse/Study 2, U74v2/ER bKO kidney E2 (82412)): 58
  E2 Expr (/evansm/Kidney, mouse/Study 2, U74v2/WT kidney E2 (82408)): 80
  E2 Expr (/evansm/Kidney, mouse/Study 2, U74v2/WT kidney E2 (82409)): 44
[8]
  E2: 236
  Study 1 E2 Expr (/evansm/Kidney, mouse/Study 1, U74v2/KO E2 kidney (81038)): 282
  E2 Expr (/evansm/Kidney, mouse/Study 2, U74v2/ER bKO kidney E2 (82412)): 295
  E2 Expr (/evansm/Kidney, mouse/Study 2, U74v2/WT kidney E2 (82408)): 264
  E2 Expr (/evansm/Kidney, mouse/Study 2, U74v2/WT kidney E2 (82409)): 178
92232_at, U88328, cytokine inducible SH-2 containing protein 3
  E2 Expr (/evansm/Kidney, mouse/Study 1, U74v2/WT E2 kidney (81036)): 45
93104_at, Z16410, B-cell translocation gene 1, anti-proliferative
  E2 Expr (/evansm/Kidney, mouse/Study 1, U74v2/WT E2 kidney (81036)): 14
93374_at, AI836349, junctophilin 3
  E2 Expr (/evansm/Kidney, mouse/Study 1, U74v2/WT E2 kidney (81036)): 65
94694_at, M69196, proprotein convertase subtillsin/kexin type 1
  E2 Expr (/evansm/Kidney, mouse/Study 1, U74v2/WT E2 kidney (81036)): 27
94716_f_at, M17962, kallikrein 9
  E2 Expr (/evansm/Kidney, mouse/Study 1, U74v2/WT E2 kidney (81036)): 380
94773_at, X01801, nerve growth factor, alpha
  E2 Expr (/evansm/Kidney, mouse/Study 1, U74v2/WT E2 kidney (81036)): 53
95559_at, AI838836, RIKEN cDNA 6330403K07 gene
  E2 Expr (/evansm/Kidney, mouse/Study 1, U74v2/WT E2 kidney (81036)): 74
95775_f_at, V00829, kallikrein 1
  E2 Expr (/evansm/Kidney, mouse/Study 1, U74v2/WT E2 kidney (81036)): 370
95905_at, AI118078, Mm.24361
  E2 Expr (/evansm/Kidney, mouse/Study 1, U74v2/WT E2 kidney (81036)): 83
96215_f_at, AI53421, Mm.218360
  E2 Expr (/evansm/Kidney, mouse/Study 1, U74v2/WT E2 kidney (81036)): 206
96591_at, U24703, reelin
  E2 Expr (/evansm/Kidney, mouse/Study 1, U74v2/WT E2 kidney (81036)): 43
96629_at, X04097, similar to TESTOSTERONE-REGULATED RP2 PROTEIN
  E2 Expr (/evansm/Kidney, mouse/Study 1, U74v2/WT E2 kidney (81036)): 55
97353_at, AI837497, AF9Q34 NGAP-like protein
  E2 Expr (/evansm/Kidney, mouse/Study 1, U74v2/WT E2 kidney (81036)): 29
97519_at, X13986, secreted phosphoprotein 1
  E2 Expr (/evansm/Kidney, mouse/Study 1, U74v2/WT E2 kidney (81036)): 178
97520_s_at, X83569, neuroatin
  E2 Expr (/evansm/Kidney, mouse/Study 1, U74v2/WT E2 kidney (81036)): 157
98055_at, AW121500, bladder cancer associated protein homolog (human)
  E2 Expr (/evansm/Kidney, mouse/Study 1, U74v2/WT E2 kidney (81036)): 14
98437_at, U83720, caspase 3, apoptosis related cysteine protease
  E2 Expr (/evansm/Kidney, mouse/Study 1, U74v2/WT E2 kidney (81036)): 39
98628_f_at, AF003695, hypoxia inducible factor 1, alpha subunit
  E2 Expr (/evansm/Kidney, mouse/Study 1, U74v2/WT E2 kidney (81036)): 288
99057_at, M12379, thymus cell antigen 1, theta
  E2 Expr (/evansm/Kidney, mouse/Study 1, U74v2/WT E2 kidney (81036)): 57
99127_at, X61506, spinocerebellar ataxia 10 homolog (human)
  E2 Expr (/evansm/Kidney, mouse/Study 1, U74v2/WT E2 kidney (81036)): 66
99552_at, U79550, slug, chicken homolog
  E2 Expr (/evansm/Kidney, mouse/Study 1, U74v2/WT E2 kidney (81036)): 19
99632_at, U83902, MAD2 (mitotic arrest deficient, homolog)-like 1 (yeast)
  E2 Expr (/evansm/Kidney, mouse/Study 1, U74v2/WT E2 kidney (81036)): 27
100060_l_at, M13500, kallikrein 8
  E2 Expr (/evansm/Kidney, mouse/Study 1, U74v2/WT E2 kidney (81036)): 39
100061_f_at, M13500, kallikrein 8
  E2 Expr (/evansm/Kidney, mouse/Study 1, U74v2/WT E2 kidney (81036)): 341
100407_at, L38580, galanin
  E2 Expr (/evansm/Kidney, mouse/Study 1, U74v2/WT E2 kidney (81036)): 98
100422_f_at, AJ237939, signal transducer and activator of transcription 5A
  E2 Expr (/evansm/Kidney, mouse/Study 1, U74v2/WT E2 kidney (81036)): 151
100423_f_at, AJ237939, signal transducer and activator of transcription 5A
  E2 Expr (/evansm/Kidney, mouse/Study 1, U74v2/WT E2 kidney (81036)): 96
100440_f_at, U76758, ankyrin 1, erythroid
  E2 Expr (/evansm/Kidney, mouse/Study 1, U74v2/WT E2 kidney (81036)): 119
100539_at, AI841279, ?HBACH Cytosolic acyl coenzyme A thioester hydrolase
  E2 Expr (/evansm/Kidney, mouse/Study 1, U74v2/WT E2 kidney (81036)): 16
100681_f_at, V00829
  E2 Expr (/evansm/Kidney, mouse/Study 1, U74v2/WT E2 kidney (81036)): 123
100719_f_at, J03677, kallikrein 16
  E2 Expr (/evansm/Kidney, mouse/Study 1, U74v2/WT E2 kidney (81036)): 119
101289_f_at, M17979
  E2 Expr (/evansm/Kidney, mouse/Study 1, U74v2/WT E2 kidney (81036)): 305
101737_at, U12932, follicle stimulating hormone beta
  E2 Expr (/evansm/Kidney, mouse/Study 1, U74v2/WT E2 kidney (81036)): 19
101738_at, U25145, tutetnizing hormone beta
  E2 Expr (/evansm/Kidney, mouse/Study 1, U74v2/WT E2 kidney (81036)): 578
101870_at, V00793
  E2 Expr (/evansm/Kidney, mouse/Study 1, U74v2/WT E2 kidney (81036)): 21

From US7371207B2 (Wyeth, priority 2002, dated 2008)
